Data from ChEMBL document CHEMBL1142376, “Novel CADD-based peptidyl vinyl ester derivatives as potential proteasome inhibitors” (Bioorg Med Chem Lett, 2008).

Assays:
[1] = Inhibition of chymotrypsin-like activity of 20S proteasome
[2] = Inhibition of post acidic-like activity of 20S proteasome
[3] = Inhibition of trypsin-like activity of 20S proteasome
HL-60 = experiment: Antiproliferative activity against human HL60 cells at 10 umole; assay type: functional
BGC-823 = experiment: Antiproliferative activity against human BGC823 cells at 10 umole; assay type: functional
Bel-7402 = experiment: Antiproliferative activity against human Bel7402 cells at 10 umole; assay type: functional
KB = experiment: Antiproliferative activity against human KB cells at 10 umole; assay type: functional

Row | Compound | IC50 [1] | IC50 [2] | IC50 [3] | Activity (HL-60) | Activity (BGC-823) | Activity (Bel-7402) | Activity (KB)
1 | CCOC(=O)/C=C/[C@H](Cc1ccccc1)NC(=O)[C@H](CC(C)C)NC(=O)OC(C)(C)C | > 100 µmol | > 100 µmol | > 100 µmol | 33.88% | 30.21% | 1.55% | -6.67%
2 | CCOC(=O)/C=C/[C@H](Cc1ccccc1)NC(=O)[C@H](Cc1ccccc1)NC(=O)OC(C)(C)C | > 100 µmol | > 100 µmol | > 100 µmol | 25.73% | 20.9% | -3.61% | -4.66%
